We go through 2 compounds from patent US20250241901A1, “ACTIVATION OF MNRR1 / CHCHD2 AS A THERAPEUTIC TARGET FOR MITOCHONDRIA ASSOCIATED DISORDERS” (Wayne State University, priority 2024, published 2025).

Data set [1] concerns MNRR1. The data set is described as follows: MNRR1 protein levels in MELAS cybrid cells (immunoblot). The data set is classed as cell-based, human. The settings on record: 10 μM; for MNRR1 protein levels: DW7 cells, 24 h. On the procedure:
FIGS. 6A-6C: FIG. 6A: Above, Chemical structures of nitazoxanide, its metabolites, and similar compounds. Abbreviations: P4, Phenyl-4-aminosalicylic acid; 4ABA, 4-Aminobenzanilide; 4ASA, 4-Amino salicylic acid; BA, Benzanilide; PBO, Phenyl benzoate; PSA, Phenyl salicylic acid; 2AN, 2-Amino 5-nitrothiazole. Below, Equal amounts of lysates of MELAS cells treated with Vehicle (DMSO) or the various compounds (10 μM) for 24 h were separated on an SDS-PAGE gel and probed for MNRR1 levels. Actin was probed as a loading control and numbers below represent an average and SD of 3 biological replicates. FIGS. 6B-6C: MNRR1 transcript levels are shown relative to 18S rRNA (n=4 biological replicates, error bars represent SE). In all figures, * indicates p<0.05, ** indicates p<0.005.
FIGS. 11A-11F: RBPJk and HIF2α compete for binding at the ORE in the MNRR1 promoter to regulate transcription. FIG. 11A: Chromatin immunoprecipitation-qPCR assessing binding of HIF2α to the endogenous MNRR1 promoter in MELAS cybrid cells with 0% (CL9) and 70% heteroplasmy (DW7). FIG. 11B: Dual luciferase reporter assay showing relative activation of MNRR1-luciferase levels in MELAS cybrid cells overexpressing varying proportions of constitutively active RBPJk (RBP-CA) and HIF2α. FIG. 11C: Dual luciferase reporter assay showing relative activation of MNRR1-luciferase levels in MELAS cybrid cells overexpressing the WT (FIG. 9A) or ΔORE (positions 47-53 in SEQ ID NO: 25 in FIG. 9C) promoter with EV (dotted line) or HIF2α. FIG. 11D: Equal amounts of Control or HIFα knockdown (KD) MELAS cybrid cell lysates were separated on an SDS-PAGE gel and probed for HIF2α and MNRR1 levels. Tubulin was probed as loading control. FIG. 11E: Oxygen consumption measured from Control or HIFα knockdown (KD) MELAS cybrid cells. (n=4 biological replicates, error bars represent SE). FIG. 11F: Left, Oxygen consumption measured from MELAS cybrid cells treated with vehicle (DMSO) or PT2385 (10 μM), an inhibitor of HIF2α function, for 24 h. Right, Equal amounts of MELAS cybrid cell lysates treated with vehicle (DMSO) or PT2385 (10 μM) for 24 h, separated on an SDS-PAGE gel, and probed for MNRR1 levels. GAPDH was probed as a loading control.
Immunoblotting: Immunoblotting was performed as described previously. Cell lysates for immunoblotting were prepared using RIPA buffer (Abcam, Waltham, MA) and included a protease and phosphatase inhibitor cocktail (Sigma, St. Louis, MO). […] The clear supernatants were transferred to new tubes and quantified using the Bradford reagent with BSA as standard (BioRad, Hercules. CA). […] For detection after immunoblotting, the SuperSignal™ West Pico PLUS substrate (ThermoFisher, Waltham, MA) was used to generate chemiluminescence signal, which was detected with X-Ray film (RadTech, Vassar, MI).

The nature of data set [2]: Clinical use of nitazoxanide in adult humans. Type of data set: in vivo, human. The settings on record: 500 mg (per adult) twice a day.
Data set [3] has as its system HIF2α. The data set is described as follows: HIF2α protein levels in MELAS cybrid cells (immunoblot). Type of data set: cell-based, human. As for the experimental part: FIGS. 10A-10E: The reduction of MNRR1 in MELAS cells is via HIF2α acting at the ORE and not the HRE. FIG. 10A: Above, Equal amounts of MELAS cell lysates, treated with vehicle (DMSO) or increasing amounts of tizoxanide (2.5 to 40 μM) for 24 h, were separated on an SDS-PAGE gel and probed for HIF2α, MNRR1, and Tubulin. Below, Protein quantification for MNRR1 and HIF2α relative to Tubulin. FIG. 10B: Dual luciferase reporter assay showing relative activation of MNRR1-luciferase in MELAS cybrid cells overexpressing WT (FIG. 9A), Δ 801-952 (FIG. 9A), ΔORE (positions 47-53 of SEQ ID NO: 25 in FIG. 9C) or ΔHRE (positions 59-66 of SEQ ID NO: 25 in FIG. 9C). FIG. 10C: Dual luciferase reporter assay showing relative activation of HRE-luciferase levels in cybrid cells with 0% (CL9) and 70% MELAS heteroplasmy (DW7). […]
Immunoblotting: Immunoblotting was performed as described previously. […] The clear supernatants were transferred to new tubes and quantified using the Bradford reagent with BSA as standard (BioRad, Hercules. CA). […] For detection after immunoblotting, the SuperSignal™ West Pico PLUS substrate (ThermoFisher, Waltham, MA) was used to generate chemiluminescence signal, which was detected with X-Ray film (RadTech, Vassar, MI).
In general terms: Immunoblotting shows a protein as a band on a membrane.

The conditions of data set [4]: in cells; cited from earlier work.
For data set [5], the system named is MELAS patient fibroblasts. The data set is described as follows: Heteroplasmy in MELAS patient fibroblasts. The data set is classed as cell-based, human. The following applies: low heteroplasmy levels (<50%). On the procedure:
Restriction Enzyme Digestion: DNA was analyzed for the MELAS mutation as described previously. The A→G mutation creates a new Haelll site at position 3243 that can be amplified by PCR using primers corresponding to the light-strand positions 3116 to 3134 and to the heavy-strand positions 3353 to 3333. Equal amounts of the resulting products were digested with the restriction enzyme Haelll (New England Biolabs) and electrophoresed on a 2.5% agarose gel.

A value given as a limit tells only on which side of the number the result lay.

As to `CC(=O)Oc1ccccc1C(=O)Nc1ncc([N+](=O)[O-])s1` [nitazoxanide, Nitazoxanide], the MNRR1 protein levels result in data set [1] is recorded as “significant increase”. Further, the “drug concentration in the blood” value in data set [2] was “around 600 micromolar”. In addition, in data set [3] (MELAS cells), the “levels of HIF2α” value is listed as “reduces”. Besides, in data set [4], the “fraction metabolized to tizoxanide” value is reported as above 97%.
As to `O=C(Nc1ncc([N+](=O)[O-])s1)c1ccccc1O` [tizoxanide, Tizoxanide], the shift of heteroplasmy result in data set [5] is on record as “do not show a shift of heteroplasmy”. Besides, in data set [1], the MNRR1 protein levels result is recorded as “significant increase”. Also, the MNRR1 levels result in data set [1] (MELAS cybrid cells, 48 h) is “increases MNRR1 levels”. Further, the “HIF2α protein levels relative to MNRR1” value in data set [3] (MELAS cybrid cells, 2.5 to 40 μM, 24 h) is “inversely proportional in a concentration dependent manner to MNRR1”.
